Like-named read-outs stand apart in the source and are kept apart here.
Tests used:
[1] = target: T1, EIF2AK3 (PERK) catalytic domain (amino acids 536-1116) (Homo sapiens, UniProt Q9NZJ5); assay: PERK in vitro activity assay (isolated), TR-FRET kinase assay; format: biochemical; conditions: isolated PERK enzyme, 1.5 μM ATP; read-out: Biochemical IC50
T1 construct: EIF2AK3 (PERK) catalytic domain (amino acids 536-1116)
T1 sequence (Q9NZJ5 536-1116): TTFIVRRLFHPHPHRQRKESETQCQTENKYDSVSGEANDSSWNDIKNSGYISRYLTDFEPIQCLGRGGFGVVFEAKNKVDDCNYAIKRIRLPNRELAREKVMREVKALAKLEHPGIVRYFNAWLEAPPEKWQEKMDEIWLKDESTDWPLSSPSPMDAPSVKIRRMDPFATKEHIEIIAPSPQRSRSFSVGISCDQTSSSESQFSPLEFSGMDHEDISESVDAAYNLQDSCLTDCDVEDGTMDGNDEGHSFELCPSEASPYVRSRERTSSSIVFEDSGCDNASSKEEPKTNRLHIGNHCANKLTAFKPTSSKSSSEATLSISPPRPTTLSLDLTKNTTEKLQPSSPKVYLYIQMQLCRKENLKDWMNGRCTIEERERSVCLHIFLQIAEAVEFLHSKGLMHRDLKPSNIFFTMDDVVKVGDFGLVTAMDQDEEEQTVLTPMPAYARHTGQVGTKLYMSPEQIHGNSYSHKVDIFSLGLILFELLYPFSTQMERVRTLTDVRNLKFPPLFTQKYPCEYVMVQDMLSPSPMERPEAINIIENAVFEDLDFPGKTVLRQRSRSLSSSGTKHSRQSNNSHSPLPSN
Excerpt: PERK In Vitro Activity Assay (Isolated):
In vitro Inhibition of PERK Enzyme Activity (isolated) Recombinant human EIF2AK2 (PKR) catalytic domain (amino acids 252-551), EIF2AK3 (PERK) catalytic domain (amino acids 536-1116), GFP-eIF2a substrate, and Terbium-labelled phospho-eIF2a antibody is obtained (Invitrogen, Carlsbad, Calif.).
Express and purify HIS-SUMO-GCN2 catalytic domain (amino acids 584-1019) from E. coli. Perform TR-FRET kinase assays in the absence or presence of inhibitors in a reaction buffer consisting of 50 mM HEPES, pH 7.5, 10 mM MgCb, 1.0 mM EGTA, and 0.01% Brij-35, and 100-200 nM GFP-eIF2a substrate. […] Add test compound, initiate the reaction by addition of enzyme, and incubate at room temperature for 45 minutes. Stop the reaction by addition of EDTA to a final concentration of 10 mM, add Terbium-labelled phospho-eIF2a antibody at a final concentration of 2 nM, and incubate for 90 minutes. Monitor the resulting fluorescence in an EnVison® Multilabel reader (PerkinElmer, Waltham, Mass.). Determine TR-FRET ratios and the resulting IC50 values using a 4-parameter nonlinear logistic equation as shown: Y=(A+((B−A)/(1+((C/x)[…])))) where, Y=% specific inhibition, A=Bottom of the curve, B=Top of the curve, C=absolute IC50 (concentration causing 50% inhibition), and D=hill slope.

[2] = system: GFP-eIF2α in HEK293 cells; assay: PERK cellular assay, TR-FRET in HEK293-EGFP-eIF2a cells after tunicamycin-induced ER stress; format: cell-based; conditions: HEK293-EGFP-eIF2a cells, tunicamycin 2 hours, read-out: Cellular eIF2α IC50
Description: Stable cell lines were created in HEK293 cells using lentiviral particles harboring an expression vector for GFP-eIF2α. Cells were selected using puromycin and enriched using fluorescence activated cell sorting against GFP. HEK293-EGFP-eIF2a cells were plated at 5000 cells/well in 384-well assay plates and incubated overnight at 37° C., 5% CO2. Inhibitor compounds were added to the wells by Echo acoustic dispensing and incubated for 30 minutes at 37° C., 5% CO2 prior to induction of ER stress by addition of tunicamycin to […] for 2 hours. Cells were lysed and TR-FRET was measured in an EnVision plate reader (PerkinElmer). FRET ratio data was normalized to signal from lysates treated with DMSO vehicle control and plotted as percent inhibition against 10-point; 3-fold dilution series of inhibitors. IC50 values were calculated using 4-parameter logistical fitting in XLFit.

IC50 [1] [nM]	SMILES	IC50 [2] [nM]	IC50 ([2]; Homo sapiens, HEK293, 2 h) [nM]
1 to 25	Cc1cc(F)cc(C(O)C(=O)Nc2ccc(-c3cn(C)c4nc(C)nc(N)c34)c(F)c2)c1 (centres unmarked) [Example 86, N-(4-(4-amino-2,7-dimethyl-7H-pyrrolo[2,3-d]pyrimidin-5-yl)-3-fluorophenyl)-2-(3-fluoro-5-methylphenyl)-2-hydroxyacetamide]	51 to 100	
1 to 25	Cc1nc(N)c2c(-c3ccc(NC(=O)C(O)c4cccc(C(F)(F)F)c4)cc3C)cn(C)c2n1 (centres unmarked) [Example 50, N-(4-(4-amino-2,7-dimethyl-7H-pyrrolo[2,3-d]pyrimidin-5-yl)-3-methylphenyl)-2-hydroxy-2-(3-(trifluoromethyl)phenyl)acetamide]	1 to 25	
1 to 25	Cc1nc(N)c2c(-c3ccc(NC(=O)C(O)c4cc(F)cc(C(F)(F)F)c4)c(F)c3F)cn(C)c2n1 (single isomer, unassigned) [Example 115, N-(4-(4-amino-2,7-dimethyl-7H-pyrrolo[2,3-d]pyrimidin-5-yl)-2,3-difluorophenyl)-2-(3-fluoro-5-(trifluoromethyl)phenyl)-2-hydroxyacetamide]	1 to 25	
101 to 250	Cc1cc(NC(=O)c2ccccc2)ccc1-c1cn(C)c2ncnc(N)c12 [Example 167, N-(4-(4-amino-7-methyl-7H-pyrrolo[2,3-d]pyrimidin-5-yl)-3-methylphenyl)benzamide]		3000 to 4000
1 to 25	CCc1ccc(CC(=O)Nc2ccc(-c3cn(C)c4ncnc(N)c34)c(C)c2)cc1 [Example 147, N-(4-(4-amino-7-methyl-7H-pyrrolo[2,3-d]pyrimidin-5-yl)-3-methylphenyl)-2-(4-ethylphenyl)acetamide]		51 to 100
1 to 25	Cn1cc(-c2ccc(NC(=O)C(O)c3cccc(F)c3)cc2Cl)c2c(N)ncnc21 (centres unmarked) [Example 14, N-(4-(4-amino-7-methyl-7H-pyrrolo[2,3-d]pyrimidin-5-yl)-3-chlorophenyl)-2-(3-fluorophenyl)-2-hydroxyacetamide]	1 to 25	
101 to 250	Cc1cc(NC(=O)C(O)c2cccc(F)c2)ccc1-c1cn(C)c2nc(C(C)C)nc(N)c12 (centres unmarked) [Example 25, N-(4-(4-amino-2-isopropyl-7-methyl-7H-pyrrolo[2,3-d]pyrimidin-5-yl)-3-methylphenyl)-2-(3-fluorophenyl)-2-hydroxyacetamide]		> 5000
26 to 50	Cc1nc(N)c2c(-c3ccc(NC(=O)C(O)c4cc(F)cc(F)c4)cc3C)cn(C)c2n1 (centres unmarked) [Example 53, N-(4-(4-amino-2,7-dimethyl-7H-pyrrolo[2,3-d]pyrimidin-5-yl)-3-methylphenyl)-2-(3,5-difluorophenyl)-2-hydroxyacetamide]	251 to 500	
1 to 25	Cc1nc(N)c2c(-c3ccc(NC(=O)C(O)c4cccc(F)c4)c(F)c3F)cn(C)c2n1 (single isomer, unassigned) [Example 110, N-(4-(4-amino-2,7-dimethyl-7H-pyrrolo[2,3-d]pyrimidin-5-yl)-2,3-difluorophenyl)-2-(3-fluorophenyl)-2-hydroxyacetamide]	1 to 25	
1 to 25	Cc1cc(NC(=O)Cc2ccccc2)ccc1-c1cn(C)c2ncnc(N)c12 [Example 137, N-(4-(4-amino-7-methyl-7H-pyrrolo[2,3-d]pyrimidin-5-yl)-3-methylphenyl)-2-phenylacetamide]		26 to 50
1 to 25	Cc1nc(N)c2c(-c3cc(F)c(NC(=O)C(O)c4cccc(F)c4)cc3F)cn(C)c2n1 (centres unmarked) [Example 123, N-(4-(4-amino-2,7-dimethyl-7H-pyrrolo[2,3-d]pyrimidin-5-yl)-2,5-difluorophenyl)-2-(3-fluorophenyl)-2-hydroxyacetamide]		26 to 50
26 to 50	Cc1nc(N)c2c(-c3ccc(NC(=O)C(O)c4cccc(F)c4)cc3)cn(C)c2n1 (centres unmarked) [Example 24, N-(4-(4-amino-2,7-dimethyl-7H-pyrrolo[2,3-d]pyrimidin-5-yl)phenyl)-2-(3-fluorophenyl)-2-hydroxyacetamide]	1000 to 2000	
101 to 250	Cc1cc(NC(=O)CC2CCCC2)ccc1-c1cn(C)c2ncnc(N)c12 [Example 165, N-(4-(4-amino-7-methyl-7H-pyrrolo[2,3-d]pyrimidin-5-yl)-3-methylphenyl)-2-cyclopentyl-acetamide]		501 to 1000
101 to 250	Cc1nc(N)c2c(-c3cc(F)c(NC(=O)C(O)c4cccc(F)c4)cc3C)cn(C)c2n1 (single isomer, unassigned) [Example 122, N-(4-(4-amino-2,7-dimethyl-7H-pyrrolo[2,3-d]pyrimidin-5-yl)-2-fluoro-5-methylphenyl)-2-(3-fluorophenyl)-2-hydroxyacetamide]	1000 to 2000	
1 to 25	Cc1nc(N)c2c(-c3c(C)cc(NC(=O)C(O)c4cccc(F)c4)cc3C)cn(C)c2n1 (centres unmarked) [Example 126, N-(4-(4-amino-2,7-dimethyl-7H-pyrrolo[2,3-d]pyrimidin-5-yl)-3,5-dimethylphenyl)-2-(3-fluorophenyl)-2-hydroxyacetamide]		51 to 100
51 to 100	CCc1cc(F)cc(C(O)C(=O)Nc2ccc(-c3cn(C)c4nc(C)nc(N)c34)c(C)c2)c1 (centres unmarked) [Example 59, N-(4-(4-amino-2,7-dimethyl-7H-pyrrolo[2,3-d]pyrimidin-5-yl)-3-methylphenyl)-2-(3-ethyl-5-fluorophenyl)-2-hydroxyacetamide]	251 to 500	
51 to 100	Cc1cc(NC(=O)C(C)(O)c2ccccc2)ccc1-c1cn(C)c2ncnc(N)c12 (centres unmarked) [Example 7, N-(4-(4-amino-7-methyl-7H-pyrrolo[2,3-d]pyrimidin-5-yl)-3-methylphenyl)-2-hydroxy-2-phenylpropanamide]		101 to 250
51 to 100	Cc1nc(N)c2c(-c3ccc(NC(=O)C(O)c4cccc(Cl)c4)cc3C)cn(C)c2n1 (centres unmarked) [Example 38, N-(4-(4-amino-2,7-dimethyl-7H-pyrrolo[2,3-d]pyrimidin-5-yl)-3-methylphenyl)-2-(3-chlorophenyl)-2-hydroxyacetamide]	501 to 1000	
1 to 25	Cn1cc(-c2ccc(NC(=O)C(O)c3cccc(F)c3)cc2)c2c(N)ncnc21 (centres unmarked) [Example 29, N-(4-(4-amino-7-methyl-7H-pyrrolo[2,3-d]pyrimidin-5-yl)phenyl)-2-(3-fluorophenyl)-2-hydroxyacetamide]	1 to 25	
251 to 500	Cc1nc(N)c2c(-c3ccc(NC(=O)C(O)c4cc(F)cc(F)c4)c(F)c3F)cn(C)c2n1 (single isomer, unassigned) [Example 114, N-(4-(4-amino-2,7-dimethyl-7H-pyrrolo[2,3-d]pyrimidin-5-yl)-2,3-difluorophenyl)-2-(3,5-difluorophenyl)-2-hydroxyacetamide]	1000 to 2000	
1 to 25	Cc1nc(N)c2c(-c3ccc(NC(=O)C(O)c4cccc(F)c4)nc3C)cn(C)c2n1 (centres unmarked) [Example 127, N-(5-(4-amino-2,7-dimethyl-7H-pyrrolo[2,3-d]pyrimidin-5-yl)-6-methylpyridin-2-yl)-2-(3-fluorophenyl)-2-hydroxyacetamide]	101 to 250	
51 to 100	Cc1nc(N)c2c(-c3ccc(NC(=O)C(O)c4cccc(F)c4)c(F)c3C)cn(C)c2n1 (centres unmarked) [Example 13, N-(4-(4-amino-2,7-dimethyl-7H-pyrrolo[2,3-d]pyrimidin-5-yl)-2-fluoro-3-methylphenyl)-2-(3-fluorophenyl)-2-hydroxyacetamide]	1000 to 2000	
